Structures are written as SMILES.

The text below walks through data of ChEMBL document CHEMBL2074342, “Kinetic analysis of rhodamines efflux mediated by the multidrug resistance protein (MRP1)” (Biophys J, 2003).

The data set deals with Multidrug resistance-associated protein 1 (Homo sapiens, UniProt P33527). The data set can be described thus: TP_TRANSPORTER: intracellular accumulation in MRP1-expressing GLC4/ADR cell. The following applies: glc-4/adr. The class given is functional, cell-based.
Multidrug resistance-associated protein 1, sequence (P33527 whole entry): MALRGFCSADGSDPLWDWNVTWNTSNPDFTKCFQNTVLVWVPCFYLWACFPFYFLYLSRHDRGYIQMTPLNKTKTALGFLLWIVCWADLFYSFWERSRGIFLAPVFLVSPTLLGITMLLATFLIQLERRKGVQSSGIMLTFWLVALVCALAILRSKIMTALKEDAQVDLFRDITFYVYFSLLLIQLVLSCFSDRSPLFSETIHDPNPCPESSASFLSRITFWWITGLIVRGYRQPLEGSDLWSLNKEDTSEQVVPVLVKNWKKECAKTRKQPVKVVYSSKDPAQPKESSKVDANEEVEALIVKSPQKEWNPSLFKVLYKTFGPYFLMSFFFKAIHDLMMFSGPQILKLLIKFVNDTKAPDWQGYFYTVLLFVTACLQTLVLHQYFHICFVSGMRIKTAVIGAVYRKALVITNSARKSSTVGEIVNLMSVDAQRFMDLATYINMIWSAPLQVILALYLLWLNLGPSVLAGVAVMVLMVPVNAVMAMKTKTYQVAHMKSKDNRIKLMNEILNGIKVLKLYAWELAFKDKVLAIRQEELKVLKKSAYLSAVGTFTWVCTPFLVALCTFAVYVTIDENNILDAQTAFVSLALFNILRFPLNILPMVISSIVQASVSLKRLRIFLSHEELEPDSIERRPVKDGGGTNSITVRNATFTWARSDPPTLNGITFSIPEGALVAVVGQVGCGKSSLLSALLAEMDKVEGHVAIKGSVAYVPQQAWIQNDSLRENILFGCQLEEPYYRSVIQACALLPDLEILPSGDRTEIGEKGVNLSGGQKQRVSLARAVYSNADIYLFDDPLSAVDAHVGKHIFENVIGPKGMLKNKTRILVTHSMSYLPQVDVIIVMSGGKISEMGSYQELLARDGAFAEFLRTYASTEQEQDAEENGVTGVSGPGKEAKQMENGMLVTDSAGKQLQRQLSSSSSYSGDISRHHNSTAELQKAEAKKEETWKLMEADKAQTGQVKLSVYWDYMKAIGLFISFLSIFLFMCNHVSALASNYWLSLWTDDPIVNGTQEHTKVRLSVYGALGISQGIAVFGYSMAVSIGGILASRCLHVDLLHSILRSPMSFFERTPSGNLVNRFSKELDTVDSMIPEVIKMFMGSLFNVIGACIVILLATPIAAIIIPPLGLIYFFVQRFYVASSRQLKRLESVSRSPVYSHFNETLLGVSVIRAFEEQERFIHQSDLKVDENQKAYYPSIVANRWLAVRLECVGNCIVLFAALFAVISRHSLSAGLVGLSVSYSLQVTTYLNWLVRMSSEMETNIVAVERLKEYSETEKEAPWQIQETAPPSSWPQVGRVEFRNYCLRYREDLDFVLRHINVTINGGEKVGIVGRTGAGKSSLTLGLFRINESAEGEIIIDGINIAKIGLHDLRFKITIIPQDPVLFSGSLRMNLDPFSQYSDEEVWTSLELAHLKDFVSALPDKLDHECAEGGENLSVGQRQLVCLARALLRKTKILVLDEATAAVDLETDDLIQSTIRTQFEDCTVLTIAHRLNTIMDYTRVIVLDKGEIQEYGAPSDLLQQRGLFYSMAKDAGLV

On to `CC/N=c1\cc2oc3cc(NCC)c(C)cc3c(-c3ccccc3C(=O)OCC)c-2cc1C.Cl` [RHODAMINE 6G HYDROCHLORIDE], for which the Activity result was “substrate [+]”.

`CCOC(=O)c1ccccc1-c1c2ccc(=[N+](C)C)cc-2oc2cc(N(C)C)ccc12` [RHODAMINE I]: the Activity entry is “substrate [+]”.

Take `COC(=O)c1ccccc1-c1c2ccc(=[N+](C)C)cc-2oc2cc(N(C)C)ccc12` [RHODAMINE II]: the Activity entry is “substrate [+]”.

As for `CN(C)c1ccc2c(-c3ccccc3C(=O)[O-])c3ccc(N(C)C)cc3[o+]c2c1` [TETRAMETHYLRHODAMINE], the Activity entry was “substrate [+]”.
